Reference: patent publication US20250084069A1, “GERALEXIN AND USES THEREOF FOR THE TREATMENT OF RETINAL DEGENERATIVE DISEASES” (INSTITUT NATIONAL DE LA SANTÉ ET DE LA RECHERCHE MÉDICALE, priority 2022, published 2025)

Key:
[1] = test system: cones of cone-enriched cultures from chicken embryo; test: Cone survival in cone-enriched cultures from chicken embryo (live/dead assay); format: cell-based
Excerpt: FIG. 1: Identification of an extract from Uvaria chamae protecting cones by high content screening of 800 extracts from 200 medicinal plants using cone-enriched cultures from chicken embryo. A. The set represents a total of 12,800 tests. a: methanol polyamide, b: ethyl acetate, c: depleted ethyl acetate, d: depleted methanol. The figure gives an overview of the screening. […] C. Chromatogram of the fractionation by HPLC of Uvaria chamae the fraction Ucac3. The eight fractions (Ucac3F 1-8) are indicated by grey/white shading. D. Test of the protective activity on cones of the Ucac3 fractions 1-8. E. Purification scheme. F. Chromatographic profile of purified Geralexin. G. Structure of Geralexin (C37H66O7).
(§1) The therapeutic molecule, the acetogenin Geralexin (C37H66O7) (FIG. 1G) was purified to homogeneity from 100 kg of leaves of Uvaria chamae, a medicinal plant. […] We have fractionated Uvaria chamae extract by 7 steps of chromatography and characterized the molecule that we called Geralexin (FIG. 1E). […] Uc acts as RdCVF by stimulating aerobic glycolysis. […] The hydrophobicity of acetogenins allows their penetration into cones where Geralexin could bind and activate aerobic glycolysis (FIG. 2F-H). We search for genes encoding glycolytic enzymes with an expression profile indicating possible function in photoreceptors in our own web database KBaSS. […] PFKFB2 is a bifunctional protein with a N-terminal kinase domain that converts fructose 6 phosphate (F6P) into fructose 2,6 biphosphate (F26BP), an allosteric activator of phosphofructokinase (PFK), which catalyzes the rate-limiting step of glycolysis. […] We have analyzed the metabolome of the cone-enriched cultures exposed to Uc with the platform MetaToul (Toulouse). […] Our hypothesis is that Geralexin could be a treatment, alone or in addition to other interventions for dry AMD by preventing cone outer segment shortening and maintaining central vision.

[2] = test system: cones of rd1 retinal explants; test: Cone protection on cultured retinal explants of the rd1 mouse; format: cell-based
[3] = test system: glucose uptake by cones; test: Uptake of NBDG (fluorescent deoxyglucose derivative) in cone-enriched cultured cells; format: cell-based, chicken
Description: FIG. 2: Geralexin protects cones by stimulating aerobic glycolysis. A. Analysis of the effect of cone cell morphology in cone-enriched cultures by Geralexin (UcaC3F8f3). Cells are labeled with calcein AM. […] C. […] G. Comparative analysis of the protection of Geralexin (Uc: G3) on cone-enriched cultures in 15 versus 30 mM glucose. H. Ratio Geralexin+/no Geralexin.
The therapeutic molecule, the acetogenin Geralexin (C37H66O7) (FIG. 1G) was purified to homogeneity from 100 kg of leaves of Uvaria chamae, a medicinal plant. […] We have fractionated Uvaria chamae extract by 7 steps of chromatography and characterized the molecule that we called Geralexin (FIG. 1E). […] Uc acts as RdCVF by stimulating aerobic glycolysis. […] The hydrophobicity of acetogenins allows their penetration into cones where Geralexin could bind and activate aerobic glycolysis (FIG. 2F-H). We search for genes encoding glycolytic enzymes with an expression profile indicating possible function in photoreceptors in our own web database KBaSS. […] PFKFB2 is a bifunctional protein with a N-terminal kinase domain that converts fructose 6 phosphate (F6P) into fructose 2,6 biphosphate (F26BP), an allosteric activator of phosphofructokinase (PFK), which catalyzes the rate-limiting step of glycolysis. […] We have analyzed the metabolome of the cone-enriched cultures exposed to Uc with the platform MetaToul (Toulouse). […]

[4] = test system: PFKFB2 mRNA; test: PFKFB2 mRNA expression by cones of cone-enriched culture, quantitative RT-PCR; format: cell-based, chicken
Excerpt: (§2) G6P: glucose-6-phosphate, F6P; fructose-6-phosphate, F16BP: fructose-1,6-biphosphate, G3P: glycerol-3-phosphate, 2/3PG: 2- and 3-phosphoglycerate and PEP: phosphoenol pyruvate,
as §1

[5] = test system: phosphofructokinase (PFK); test: Metabolomic analysis of cone-enriched cultures (MetaToul platform); format: cell-based, chicken; conditions: by metabolomic analysis
Excerpt: as §2, §1

CCCCCCCCCC1OC1C1CCC(/C=C\C=C\CCC(O)C(O)CCC(O)CCCCCCCCCCC(=O)O)O1 (stereo not shown) [Geralexin]
protective effect on cones after silencing BSG1 ([1]; cone-enriched culture after electroporation of a micro RNA targeting BSG1): Absence of reduction of the protective effect | cone survival / protection of cones ([1]; cone-enriched cultures from chicken embryo): stimulates aerobic glycolysis and cone survival | effect of oxamate on the cone survival effect ([1]; cone-enriched cultures, with lactate dehydrogenase inhibitor oxamate): Reduction of the protection of cone | protection of cones / cone survival [2]: Protection of cones | glucose (NBDG) uptake by cones [3]: Increase of the uptake of NBDG | expression of PFKFB2 mRNA [4]: Increase expression of PFKFB2 mRNA | phosphofructokinase (PFK) activity [5]: Increase phosphofructokinase (PFK) activity
